pIC50: −log10 of the molar value.
Target: T1, HIV-1 RT (Human immunodeficiency virus type 1 group M subtype B, UniProt P03366)
T1 construct: HIV-1 RT assay was carried out in 96-well Millipore MultiScreen MADVNOB50 plates using purified recombinant enzyme
Assay: HIV Reverse Transcriptase Assay: Inhibitor IC50 Determination
Assay type: biochemical
Details: purified recombinant enzyme, poly(rA)/oligo(dT)16 template-primer, 4 nM HIV-1 RT, 37° C. for 30 min, 10% DMSO; read-out: RT inhibition IC50
Description: HIV Reverse Transcriptase Assay: Inhibitor IC50 Determination
HIV-1 RT assay was carried out in 96-well Millipore MultiScreen MADVNOB50 plates using purified recombinant enzyme and a poly(rA)/oligo(dT)16 template-primer in a total volume of 50 μL. The assay constituents were 50 mM Tris/HCl 50 mM NaCl, 1 mM EDTA, 6 mM MgCl2, 5 μM dTTP, 0.15 μCi [^3H] dTTP, 5 μg/ml poly (rA) pre annealed to 2.5 μg/ml oligo (dT)16 and a range of inhibitor concentrations in a final concentration of 10% DMSO. Reactions were initiated by adding 4 nM HIV-1 RT and after incubation at 37° C. for 30 min, they were stopped by the addition of 50 μl ice cold 20% TCA and allowed to precipitate at 4° C. for 30 min. The precipitates were collected by applying vacuum to the plate and sequentially washing with 3×200 μl of 10% TCA and 2×200 μl 70% ethanol. Finally, the plates were dried and radioactivity counted in a Packard TopCounter after the addition of 25 μl scintillation fluid per well. IC50's, were calculated by plotting % inhibition versus log10 inhibitor concentrations.

Compound	pIC50
CCc1ccc(Cc2cc(C)c(=O)[nH]n2)cc1Oc1cc(C)cc(C#N)c1 [I-109, 3-[2-Ethyl-5-(5-methyl-6-oxo-1,6-dihydro-yridazin-3-ylmethyl)-phenoxy]-5-methyl-benzonitrile]	7.67
O=c1ccc(Cc2ccc(Cl)c(Oc3cc(Cl)ccc3Cl)c2)n[nH]1 [I-102, 6-[4-Chloro-3-(2,5-dichloro-phenoxy)-benzyl]-2H-pyridazin-3-one]	7.69
Cc1cc(Cc2ccc(Cl)c(Oc3cc(Cl)cc(C#N)c3)c2)n[nH]c1=O [I-108, 3-Chloro-5-[2-chloro-5-(5-methyl-6-oxo-1,6-dihydro-pyridazin-3-ylmethyl)-phenoxy]-benzonitrile]	7.95
Cc1ccc(Cl)cc1Oc1cc(Cc2cc(C)c(=O)[nH]n2)ccc1Cl [I-123, 6-[4-Chloro-3-(5-chloro-2-methyl-phenoxy)-benzyl]-4-methyl-2H-pyridazin-3-one]	7.64
O=c1ccc(Cc2ccc(Cl)c(Oc3cc(Cl)ccc3Br)c2)n[nH]1 [I-77, 6-[3-(2-Bromo-5-chloro-phenoxy)-4-chloro-benzyl]-2H-pyridazin-3-one]	7.62
CCc1ccc(Cc2ccc(=O)[nH]n2)cc1Oc1cc(C)cc(C#N)c1 [I-100, 3-[2-Ethyl-5-(6-oxo-1,6-dihydro-ridazin-3-ylmethyl)-phenoxy]-5-methyl-nzonitrile]	7.62
Cc1cc(Cc2ccc(Cl)c(Oc3cc(Cl)ccc3Br)c2)n[nH]c1=O [I-103, 6-[3-(2-Bromo-5-chloro-phenoxy)-4-chloro-benzyl]-4-methyl-2H-pyridazin-3-one]	8.03
O=c1ccc(Cc2ccc(Cl)c(Oc3cc(Cl)ccc3Br)c2F)n[nH]1 [I-136, 6-[3-(2-Bromo-5-chloro-phenoxy)-4-chloro-2-fluoro-benzyl]-2H-pyridazin-3-one]	8.10
Cc1cc(Cc2ccc(Cl)c(Oc3cc(C#N)cc(C#N)c3)c2)n[nH]c1=O [I-135, 5-[2-Chloro-5-(5-methyl-6-oxo-1,6-dihydro-pyridazin-3-ylmethyl)-phenoxy]-isophthalonitrile]	7.90
Cc1cc(Cc2ccc(Cl)c(Oc3cc(C#N)cc(C(F)F)c3)c2F)n[nH]c1=O [I-237, 3-[6-Chloro-2-fluoro-3-(5-methyl-6-oxo-1,6-dihydro-pyridazin-3-ylmethyl)-phenoxy]-5-difluoromethyl-benzonitrile]	7.89
O=c1ccc(Cc2cc(Oc3cc(Br)cc(Br)c3)c3occc3c2)n[nH]1 [I-142, 6-[7-(3,5-Dibromo-phenoxy)-benzofuran-5-ylmethyl]-2H-pyridazin-3-one]	7.82
CCc1ccc(Cc2cc(C)c(=O)[nH]n2)cc1Oc1cc(Cl)cc(C#N)c1 [I-98, 3-Chloro-5-[2-ethyl-5-(5-methyl-6-oxo-1,6-dihydro-pyridazin-3-ylmethyl)-phenoxy]-benzonitrile]	7.71
CCc1ccc(Cc2ccc(=O)[nH]n2)c(F)c1Oc1cc(Cl)cc(C#N)c1 [I-224, 3-Chloro-5-[6-ethyl-2-fluoro-3-(6-oxo-1,6-dihydro-pyridazin-3-ylmethyl)-phenoxy]-benzonitrile]	7.74

— US7189718B2, “Non-nucleoside reverse transcriptase inhibitors” (Roche Palo Alto LLC, priority 2003, dated 2007)
